What was measured:
MCF7 cells = assay: Compound 10 fluorescence in MCF7 cells with anti-Hsp90 antibody or competing compound 5; type: cell-based; details: FIG. 6B
Protocol: In FIG. 6B, the compound was added in the presence of an antibody to Hsp90. […] DAPI (blue) highlights the nucleus of the cell. In FIG. 6 the green staining from compound 10 fluorescence appears white, while blue from the DAPI-stained nuclei appears gray.

[1] = test system: TZM-bl (Hela derived) cells infected with NL4.3 virus (HIV-1); assay: Confocal microscopy of cells infected with HIV-1 treated with compound 10; type: cell-based
Protocol: TZM-bl (Hela derived) cells were added on glass coverslips in 24-well plates (1×10^5 cells/well) and were allowed to attach to cover slips overnight. For infection NL4.3 virus (HIV-1) was added to medium to achieve 10 ng/mL P24 protein concentration along with DEAE dextran at a final concentration 15 μg/mL. After 48 hours of infection, compound 10 was added to the medium and incubated for 1 hour at 37° C. Later the infected cells were washed twice with phosphate-buffered saline (PBS) and fixed for 20 min in 4% paraformaldehyde. They were washed twice with PBS and permeabilized for 30 min in 50% ice cold methanol on ice. Blocking was carried out using 1% FBS for 30 minutes at room temperature after two washes with PBS. Cells were then incubated for 2 hours at room temperature with antibody against HIV-1 capsid protein P24 at 1:100 dilutions in PBS. The antibody was obtained from the AIDS Reference and Reagent Program (HIV-1 p24 Monoclonal Antibody-183-H12-5C, Catalogue number: 3537). The cells were washed three times in PBS before and after 1 h of incubation with anti-mouse Texas Red secondary antibody (1:250). (Texas Red® Goat Anti-Mouse IgG (H+L), catalogue number: T682, Life technologies). […]

MCF7 (metastatic) cells = assay: Probe detection of Hsp90 in cells ± membrane permeabilization with Triton X 100; type: cell-based; details: FIG. 5B
Protocol: (§1) In another experiment, MCF7 (metastatic) and MCF10 (benign) cells were treated with an Hsp90 antibody±membrane permeabilization with Triton X 100. […] After permeabilization the antibody recognizes intracellular Hsp90. […] The experiment was also performed using fluorescein compound 10. […] In FIGS. 5A-5B the green staining from compound 10 fluorescence appears white, while blue from the DAPI-stained nuclei appears gray.

MCF10 (benign) cells = assay: as above; type: cell-based; details: MCF10, non-permeabilized; FIG. 5B
Protocol: as §1

[2] = test system: MDA-MB-468 tumor-bearing mice; assay: Biodistribution of compound 10 in mouse xenografts by flow cytometry; type: in vivo, NOD/SCID mice; details: 1 mg/mouse intraperitoneally, 2, 24, 48 or 72 hours
Protocol: MDA-MB-468 cells (5M cells/mouse) were injected to the flank of NOD/SCID mice. When tumors reached 5-10 mm in diameter, tumor-bearing mice were intraperitoneally injected with compound 10 (1 mg/mouse, in 100 μL of DMSO). After 2, 24, 48 or 72 hours, mice were sacrificed and tumors, livers and spleens were harvested. Tumors and livers were digested with collagenase/hyarulonidase/DNase for 1 hour at 37° C., and ficolled to eliminate debris and dead cells, and then washed. Cells in tumor digest were labeled with anti-mouse CD45-biotin+anti-H2-kD-biotin for 15 min on ice, and then 15 min with streptavidin-APC. Tumor cells were analyzed by flow cytometry to detect fluorescence from compound 10. Mouse lineage negative cells were gated for the analysis. Spleen were minced and passed through the strainer. Splenocytes, liver cells and tumor cells were analyzed by flow cytometry to detect fluorescence from compound 10.
Spleen were minced and passed through a strainer to get rid of aggregations/membranous tissue. Cells were stained with violet viability dye. Viable cells were analyzed for their compound 10 uptake.
Liver tissues were minced with blades and digested with triple enzyme buffer (collagenase III, hyarulonidase, DNAse) for 1 h at 37° C., and cells were passed through a strainer to get rid of aggregations. Cells were stained with violet viability dye. Viable cells were analyzed for their compound 10 uptake.
Tumor tissues were minced with blades and digested with triple enzyme buffer (collagenase III, hyarulonidase, DNAse) for 1 h at 37° C., and cells were passed through a strainer to get rid of aggregations. Cells were stained with anti-mouse CD45-biotin/anti-H2-kd-biotin and then streptavidin-APC and violet viability dye. Viable and CD45/H2-kd negative cells were analyzed for their compound 10 uptake.

## Cc1nn(-c2ccc(C(N)=O)c(NCCCOCCOCCOCCOCCOCCCNC(=S)Nc3ccc4c(c3)C(=O)OC43c4ccc(O)cc4Oc4cc(O)ccc43)c2)c2c1C(=O)CC(C)(C)C2 [Compound 10, 2-((1-((3′,6′-dihydroxy-3-oxo-3H-spiro[isobenzofuran-1,9′-xanthen]-5-yl)amino)-1-thioxo-6,9,12,15,18-pentaoxa-2-azahenicosan-21-yl)amino)-4-(3,6,6-trimethyl-4-oxo-4,5,6,7-tetrahydro-1H-indazol-1-yl)benzamide]
MCF7 cells
  localisation of the probe in the presence of an antibody to Hsp90: accumulate at the membrane
[1]; 48 hours of infection, 1 hour at 37° C., FIG. 16
  detection of HIV infected cells: can be used to detect cells infected with HIV
[1]; FIG. 16 panel D
  recognition of uninfected cells: do not recognize uninfected cells
MCF7 (metastatic) cells; MCF7, non-permeabilized
  probe entry and detection of Hsp90: enters and detects Hsp90
MCF7 (metastatic) cells; MCF7 compared with MCF10, Triton X 100
  detection of intracellular Hsp90 following permeabilization: detects more intracellular Hsp90 in MCF7s
MCF10 (benign) cells
  probe entry and detection of Hsp90: not in MCF10 cells
[2]; FIG. 10A
  accumulation in splenocytes: little accumulation
[2]; FIG. 10B
  accumulation in liver cells: little accumulation
[2]; FIG. 10C
  accumulation in tumor cells: high degree of accumulation

— patent US10927115B2, “Substituted heterocycles for targeting Hsp90” (Duke University, priority 2012, dated 2021)
